Values joined by “and” are separate entries in the source; they are usually repeats but may differ in a detail not shown here. Equal entries are not always repeated. Where two headings read alike, the source gives them in different places.
Key:
Male Sprague-Dawley rats [1] = experiment: Spontaneous locomotor activity, dose-response in drug-naive rats; assay type: in vivo, rat; settings: for Spontaneous locomotor activity, % of the vehicle control group mean: full hour of recording
Method: (§1) Rats weighed 160-180 g at the time of arrival.
(§2) The treatment groups consisted of Vehicle (saline; NaCl 0.9% v/w) and ACR16 tested at three doses (11; 33 and 100 μmol/kg).
(§3) KR104: Animals were allocated into five different treatment groups, n=4.
(§4) All compounds were injected s.c. four minutes before start of locomotor activity recording at a volume of 5 ml/kg.
During measurements of behavioural activity, a rat is put in a transparent acrylic cage with matted black floor (W×L×H, 41×41×30 cm) which in turn is placed in the activity monitor. […] Two rows are placed along the front and the side of the floor of the cage, at a 90 degree angle, and the third row is placed 10 cm above the floor to measure vertical activity. Photobeam sensors are spaced 2.5 cm apart.

striatal dopamine [2] = experiment: Striatal dopamine (DA) tissue level (HPLC/EC), dose-response in naive rats; assay type: in vivo, rat; settings: mean ± SEM, percentage of vehicle control group mean
Method: as §1, §2, §3, §4
(§5) A digital sonifier (Branson Digital Sonifier 250-D) was used to homogenise tissue from the striatum and limbic region. […] All samples were centrifuged at 10.000 rpm for 10 minutes at +4° C. Cortex tissue was filtered in Munktell filter paper 5.5 cm quality 1 F. Tissue eluates were analysed with respect to tissue concentrations (ng/g tissue) of the monoamine transmitter substances (Norepinephrine (NA), dopamine (DA), 5-hydroxytryptamine (5-HT)) as well as their amine metabolites (normetanephrine (NM), 3-methoxytyramine (3-MT)) and acid metabolites ([…] (DOPAC), 5-hydrocyindoleacetic acid (5-HTAA), homovanillic acid (HVA)) by HPLC separations and electrochemical detection (HPLC/EC). Stock standards (DA, NA, 5-HT, 3-MT, DOPAC, HVA, HIAA, 500 μg/ml) and internal standard (AMDA 500 μg/ml) are prepared once every three months. 5-HT and 5HIAA are dissolved in milliQ water. DA, NA, DOPAC, NM, 3-MT and HVA are dissolved in 0.01 M HCl. 5-HT, 5-HIAA, NM and HVA are kept in fridge; DA, DOPAC, NA and 3-MT are kept in freezer.
(§6) Detection potentials relative to Ag/AgCl reference are 0.45 and 0.60V. […] Detection potentials relative to Ag/AgCl reference are 0.45 and 0.65V.

Male Sprague-Dawley rats [3] = settings: for Locomotor activity, % of Tetrabenazine control group mean: full hour of recording
Source text: No brain tissue was collected from this experiment. […] Each activity monitor consists of a quadratic metal frame equipped with photobeam sensors. […] Each activity monitor is equipped with three rows of infrared photobeam sensors, each row consisting of 16 sensors. […] Photobeam sensors are spaced 2.5 cm apart. Each activity monitor is fitted in an identical sound and light attenuating box (W×L×H—55×55×45) containing a weak house light and a fan. The computer software is written using object oriented programming (LabVIEW™, National instruments, Austin, Tex., USA). Behavioural data from each activity monitor, representing the position (horizontal center of gravity and vertical activity) of the animal at each time, are recorded at a sampling frequency of 25 Hz and collected using a custom written LABView™ application. The data from each recording session are stored and analyzed with respect to distance travelled. Each behavioural recording session lasts 60 min, starting approximately 4 min after the injection of test compound. The results are presented as counts/60 minutes, counts/45 minutes or counts/15 minutes, in arbitrary length units. Statistical comparisons are carried out using Student's t-test against the control group.

Arc mRNA [4] = experiment: Arc gene expression (Arc mRNA, real-time PCR) in striatum and frontal cortex, interaction with Tetrabenazine
Arc mRNA [5] = experiment: Arc gene expression (Arc mRNA, real-time PCR) in striatum and frontal cortex, dose-response studies; assay type: in vivo, rat
Method: as §1, §4
Reference genes are HPRT and cyclophilin.
Correct PCR products are confirmed by agarose gel electroforesis (2%) PCR products are purified with PCR purification kit from Qiagen (Valencia, Calif., USA). All genes are sequenced at MWG, Germany.
For the data shown in FIG. 6, the reverse transcription and PCR were performed as follows:
Reversed transcription is performed by using a ThermoScript kit (Invitrogen).
cDNA of Arc and two reference genes, hypoxanthine-guanine phosphoribosyltransferase (HPRT) and cyclophilin A, was amplified by real-time PCR in either a triplex reaction (Tetrabenazine studies) or three singleplex reactions (studies with Pridopidine and haloperidol).

striatal dopamine [6] = experiment: Striatal dopamine (DA) tissue level (HPLC/EC), interaction with Tetrabenazine; settings: percentage of Tetrabenazine control group mean
striatal DOPAC [7] = experiment: Striatal DOPAC tissue level (HPLC/EC), interaction with Tetrabenazine; settings: percentage of Tetrabenazine control group mean
striatal DOPAC [8] = experiment: Striatal DOPAC tissue level (HPLC/EC), dose-response in naive rats; assay type: in vivo, rat; settings: mean ± SEM, percentage of vehicle control group mean
Method: as §1, §2, §3, §4, §5, §6

[9] = 0.04 mg/kg s.c. together with Tetrabenazine 0.64 mg/kg
[10] = 0.12 mg/kg s.c. together with Tetrabenazine 0.64 mg/kg

## O=C(CCCN1CCC(O)(c2ccc(Cl)cc2)CC1)c1ccc(F)cc1 [Haloperidol]
Male Sprague-Dawley rats [1]; 0.37 mg/kg s.c.
  Spontaneous locomotor activity, % of the vehicle control group mean: about 35%
Male Sprague-Dawley rats [1]; 1.1 mg/kg s.c.
  Spontaneous locomotor activity, % of the vehicle control group mean: about 35%
Male Sprague-Dawley rats [1]; 15-60 minutes post dosing, vs vehicle control
  Spontaneous locomotor activity, period 15-60 minutes post dosing (in words): a significant effect (P<0.05) was observed for the 1.1 mg/kg dose group only
Male Sprague-Dawley rats [1]; all doses tested, s.c., 60 min recording
  Effect on spontaneous locomotor activity (in words): dose-dependent inhibitory effect on spontaneous locomotor activity
Male Sprague-Dawley rats [1]; initial 15 min of recording, vs vehicle control
  Spontaneous locomotor activity, initial 15 min (in words): significant reductions (P<0.05) were seen both for the 0.37 and 1.1 mg/kg haloperidol dose groups
Male Sprague-Dawley rats [1]; s.c., not at the lowest dose tested, 0.04 mg/kg
  Doses with statistically significant effects on spontaneous locomotor activity: ≥ 0.12 mg/kg
Striatal dopamine [2]; 0.04 mg/kg s.c.
  DA striatum, dose-response in naive rats: 95 ± 5%
Striatal dopamine [2]; 0.12 mg/kg s.c.
  DA striatum, dose-response in naive rats: 78 ± 3 %
Striatal dopamine [2]; 0.37 mg/kg s.c.
  DA striatum, dose-response in naive rats: 79 ± 5 %
Striatal dopamine [2]; 1.1 mg/kg s.c.
  DA striatum, dose-response in naive rats: 81 ± 2 %
Male Sprague-Dawley rats [3]; 0.04 mg/kg s.c. combined with Tetrabenazine 0.64 mg/kg
  Locomotor activity, % of Tetrabenazine control group mean: 51%
Male Sprague-Dawley rats [3]; 0.12 mg/kg s.c. combined with Tetrabenazine 0.64 mg/kg
  Locomotor activity, % of Tetrabenazine control group mean: 41%
Male Sprague-Dawley rats [3]; 15-60 min period, combined with Tetrabenazine 0.64 mg/kg, vs Tetrabenazine control
  Locomotor activity in Tetrabenazine treated rats, 15-60 min (in words): the reduction was significant for the 0.12 mg/kg dose only
Male Sprague-Dawley rats [3]; combined with Tetrabenazine 0.64 mg/kg s.c.
  Effect on Tetrabenazine induced locomotor activity reduction (in words): further reduced locomotor activity in animals treated with Tetrabenazine
Male Sprague-Dawley rats [3]; first 15 min, combined with Tetrabenazine 0.64 mg/kg, vs Tetrabenazine control
  Locomotor activity in Tetrabenazine treated rats, 0-15 min (in words): this reducing effect was significant at both the 0.04 mg/kg (P<0.01) and the 0.12 mg/kg (P<0.05) doses
Arc mRNA [4]; 0.04 mg/kg s.c. coadministered with Tetrabenazine 0.64 mg/kg
  Striatal Arc, % of the Tetrabenazine control group mean: 272%
Arc mRNA [4]; 0.12 mg/kg s.c. coadministered with Tetrabenazine 0.64 mg/kg
  Striatal Arc, % of the Tetrabenazine control group mean: 400%
Arc mRNA [4]; 0.04 and 0.12 mg/kg s.c. with Tetrabenazine 0.64 mg/kg
  Cortical Arc gene expression in rats co-treated with Tetrabenazine (in words): no significant effect
Arc mRNA [5]; 0.12 mg/kg s.c.
  Arc mRNA in the striatum, % of the vehicle control group mean: 262%
Arc mRNA [5]; 0.37 mg/kg s.c.
  Arc mRNA in the striatum, % of the vehicle control group mean: 331%
Arc mRNA [5]; 1.1 mg/kg s.c.
  Arc mRNA in the striatum, % of the vehicle control group mean: 409%
Arc mRNA [5]; dose-response, 0.12, 0.37 and 1.1 mg/kg s.c.
  Cortical Arc gene expression (in words): no significant effect
Striatal dopamine [6]; [9]
  DA striatum, interaction with Tetrabenazine: 79 ± 3 %
Striatal dopamine [6]; [10]
  DA striatum, interaction with Tetrabenazine: 87 ± 10%
Striatal DOPAC [7]; [9]
  DOPAC striatum, interaction with Tetrabenazine: 187% and 187 ± 6 %
Striatal DOPAC [7]; [10]
  DOPAC striatum, interaction with Tetrabenazine: 218% and 218 ± 12 %
Striatal DOPAC [8]; 0.04 mg/kg s.c.
  DOPAC striatum, dose-response in naive rats: 171 ± 35%
Striatal DOPAC [8]; 0.12 mg/kg s.c.
  DOPAC striatum, dose-response in naive rats: 276 ± 8 %
Striatal DOPAC [8]; 0.37 mg/kg s.c.
  DOPAC striatum, dose-response in naive rats: 254 ± 17 %
Striatal DOPAC [8]; 1.1 mg/kg s.c.
  DOPAC striatum, dose-response in naive rats: 292 ± 10 %

Source: US11207308B2, “Pharmaceutical compositions for combination therapy” (PRILENIA NEUROTHERAPEUTICS LTD., priority 2012, dated 2021)
